The results in this text go back to patent US10030020B2, “Spirocycle compounds and methods of making and using same” (Abide Therapeutics, Inc., priority 2016, dated 2018).

In assay [1] the target is T1, MAGL (Mus musculus (Mouse), UniProt O35678). The assay is described as follows: In vitro competitive activity-based protein profiling (mouse brain membrane fraction or cell lysates), MAGL band. To be noted: mouse proteome; for inhibition at 1 µM: read-out: MAGL % Inh 1 μM (mouse); for IC50: competitive ABPP. The format is biochemical. Here is the method: In Vitro Competitive Activity-Based Protein Profiling.
T1 sequence (O35678 whole entry): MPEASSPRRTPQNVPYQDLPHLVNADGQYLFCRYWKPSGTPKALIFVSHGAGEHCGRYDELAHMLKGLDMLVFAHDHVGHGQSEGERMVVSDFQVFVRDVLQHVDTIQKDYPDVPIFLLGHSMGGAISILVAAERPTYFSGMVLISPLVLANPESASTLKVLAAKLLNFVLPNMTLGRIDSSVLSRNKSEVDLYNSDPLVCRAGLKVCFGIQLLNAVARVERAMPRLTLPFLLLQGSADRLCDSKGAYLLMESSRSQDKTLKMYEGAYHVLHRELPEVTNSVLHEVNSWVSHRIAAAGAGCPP
Proteomes (mouse brain membrane fraction or cell lysates) (50 μL, 1.0 mg/mL total protein concentration) were preincubated with varying concentrations of inhibitors at 37° C. After 30 min, FP—Rh (1.0 μL, 50 μM in DMSO) was added and the mixture was incubated for another 30 min at 37° C. Reactions were quenched with SDS loading buffer (50 μL-4×) and run on SDS-PAGE.

Assay [2] addresses T2, ABHD6 (Mus musculus (Mouse), UniProt Q8R2Y0). Kind of assay: In vitro competitive activity-based protein profiling (mouse brain membrane fraction or cell lysates), ABHD6 band. The format is biochemical. The settings on record: mouse proteome; for inhibition at 1 µM: read-out: ABHD6 % Inh 1 μM (mouse); for IC50: competitive ABPP. A digest of the protocol:
(§1)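 Residual hydrolase activity was measured as gel band fluorescence after FP-Rh labelling (30 min, 37° C) of proteomes pretreated 30 min at 37° C with inhibitor.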

The target in assay [3] is T3, FAAH (Mus musculus (Mouse), UniProt O08914). The assay is described as follows: In vitro competitive activity-based protein profiling (mouse brain membrane fraction or cell lysates), FAAH band. The format is biochemical. The settings on record: mouse proteome; for inhibition at 1 µM: read-out: FAAH % Inh 1 μM (mouse); for IC50: competitive ABPP. A digest of the protocol:
as §1

Assay [4] concerns the target T1, MAGL. Kind of assay: Mouse brain proteomes from inhibitor treated mice (oral gavage, sacrificed 4 h after administration, ABPP analysis). It counts as in vivo, mouse (C57Bl/6J). To be noted: 5 mg/kg oral gavage. The essentials: (§2)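 Percent inhibition in brain tissue measured by ABPP 4 h after a single oral gavage dose (5 mg/kg) to wild-type C57Bl/6J mice; vehicle was, for example, PEG400/Ethanol/PBS at 7/2/1.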

The target in assay [5] is T3, FAAH. Kind of assay: Mouse brain proteomes from inhibitor treated mice (oral gavage, sacrificed 4 h after administration, ABPP analysis), FAAH. To be noted: 5 mg/kg oral gavage. The format is in vivo, mouse (C57Bl/6J). The essentials:
as §2

The target of assay [6] is T2, ABHD6. The assay is described as follows: Mouse brain proteomes from inhibitor treated mice (oral gavage, sacrificed 4 h after administration, ABPP analysis), ABHD6. The format is in vivo, mouse (C57Bl/6J). The settings on record: 5 mg/kg oral gavage. A digest of the protocol: as §2

T3 sequence (O08914 whole entry): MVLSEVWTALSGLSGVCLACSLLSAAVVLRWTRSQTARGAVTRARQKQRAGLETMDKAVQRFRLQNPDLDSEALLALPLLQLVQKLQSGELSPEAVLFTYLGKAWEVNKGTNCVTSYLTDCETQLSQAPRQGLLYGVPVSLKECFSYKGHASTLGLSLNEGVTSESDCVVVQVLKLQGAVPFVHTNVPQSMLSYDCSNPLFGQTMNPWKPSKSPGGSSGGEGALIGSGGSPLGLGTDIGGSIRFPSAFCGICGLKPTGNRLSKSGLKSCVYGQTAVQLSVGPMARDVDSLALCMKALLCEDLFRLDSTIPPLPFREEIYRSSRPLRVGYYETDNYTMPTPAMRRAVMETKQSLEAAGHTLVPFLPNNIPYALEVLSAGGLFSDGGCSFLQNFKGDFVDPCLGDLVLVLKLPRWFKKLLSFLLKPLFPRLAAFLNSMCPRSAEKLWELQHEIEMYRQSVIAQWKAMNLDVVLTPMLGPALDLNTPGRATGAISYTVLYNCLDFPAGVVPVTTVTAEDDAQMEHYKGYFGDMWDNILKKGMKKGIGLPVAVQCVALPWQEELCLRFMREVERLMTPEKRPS
T2 sequence (Q8R2Y0 whole entry): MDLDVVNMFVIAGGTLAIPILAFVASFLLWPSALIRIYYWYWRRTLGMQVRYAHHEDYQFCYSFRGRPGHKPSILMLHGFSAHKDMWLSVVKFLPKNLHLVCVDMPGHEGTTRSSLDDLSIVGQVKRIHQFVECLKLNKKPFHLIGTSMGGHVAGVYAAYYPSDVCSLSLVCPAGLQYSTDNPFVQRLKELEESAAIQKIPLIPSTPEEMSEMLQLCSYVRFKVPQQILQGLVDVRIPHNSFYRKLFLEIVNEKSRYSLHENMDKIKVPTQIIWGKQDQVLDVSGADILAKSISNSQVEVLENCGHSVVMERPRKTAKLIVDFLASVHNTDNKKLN

The IC50 is the point on the concentration scale where inhibition reaches its midpoint. A higher IC50 goes with weaker potency in that assay. As to `O=C(OC(C(F)(F)F)C(F)(F)F)N1CCC2(CCCN2Cc2ccc(Cl)cc2)CC1` [Example 62, 1,1,1,3,3,3-Hexafluoropropan-2-yl 1-(4-chlorobenzyl)-1,8-diazaspiro[4.5]decane-8-carboxylate], the inhibition at 1 µM on MAGL [1] is above 75%; on ABHD6 [2] it was below 25%; on FAAH [3] it was below 25%. Besides, the IC50 was below 0.1 µM on MAGL [1], above 1 µM on ABHD6 [2] and above 1 µM at FAAH [3]. In addition, on MAGL [4], the “MAGL % Inh 5 mg/kg (mouse)” value is recorded as “### (### is ≥75%)”. Further, the “FAAH % Inh 5 mg/kg (mouse)” value at FAAH [5] is “## (## is equal to or greater than 25% but less than 75%)”. Besides, at ABHD6 [6], the “ABHD6 % Inh 5 mg/kg (mouse)” value is on record as “## (## is equal to or greater than 25% but less than 75%)”.

`O=C(OC(C(F)(F)F)C(F)(F)F)N1CCC2(CCN(Cc3cccc(Cl)c3N3CCC(F)(F)CC3)C2)CC1` [Example 64, 1,1,1,3,3,3-Hexafluoropropan-2-yl 2-(3-chloro-2-(4,4-difluoropiperidin-1-yl)benzyl)-2,8-diazaspiro[4.5]decane-8-carboxylate]: the figures for the inhibition at 1 µM at MAGL [1], on ABHD6 [2] and at FAAH [3] were above 75%, below 25% and below 25%, respectively. Besides, the values for the IC50 at MAGL [1], at ABHD6 [2] and on FAAH [3] were below 0.1 µM, above 1 µM and above 1 µM, respectively. In addition, the “MAGL % Inh 5 mg/kg (mouse)” value at MAGL [4] was “## (## is equal to or greater than 25% but less than 75%)”. Also, on FAAH [5], the “FAAH % Inh 5 mg/kg (mouse)” value was “# (# is <25%)”. In addition, the “ABHD6 % Inh 5 mg/kg (mouse)” value at ABHD6 [6] is on record as “# (# is <25%)”.

As for `O=C(OC(C(F)(F)F)C(F)(F)F)N1CCC2(CCN(Cc3cccc(Cl)c3N3CCC(F)CC3)C2)CC1` [Example 65, 1,1,1,3,3,3-Hexafluoropropan-2-yl 2-(3-chloro-2-(4-fluoropiperidin-1-yl)benzyl)-2,8-diazaspiro[4.5]decane-8-carboxylate], the inhibition at 1 µM was above 75% at MAGL [1], 25 to 75% at ABHD6 [2] and below 25% at FAAH [3]. The IC50 was below 0.1 µM on MAGL [1], above 1 µM at ABHD6 [2] and above 1 µM at FAAH [3]. Moreover, on MAGL [4], the “MAGL % Inh 5 mg/kg (mouse)” value is on record as “## (## is equal to or greater than 25% but less than 75%)”. Moreover, the “FAAH % Inh 5 mg/kg (mouse)” value on FAAH [5] is given as “# (# is <25%)”. The “ABHD6 % Inh 5 mg/kg (mouse)” value at ABHD6 [6] is reported as “## (## is equal to or greater than 25% but less than 75%)”.

With `O=C(OC(C(F)(F)F)C(F)(F)F)N1CCC2(CCCN2Cc2ccc(C(F)(F)F)cc2N2CCCC2)CC1` [Example 66, 1,1,1,3,3,3-Hexafluoropropan-2-yl 1-(2-(pyrrolidin-1-yl)-4-(trifluoromethyl)benzyl)-1,8-diazaspiro[4.5]decane-8-carboxylate], the inhibition at 1 µM on MAGL [1] was above 75%; at ABHD6 [2], below 25%; on FAAH [3], below 25%. Further, the IC50 on MAGL [1] is below 0.1 µM; on ABHD6 [2] it was above 1 µM; on FAAH [3] it was above 1 µM. Also, on MAGL [4], the “MAGL % Inh 5 mg/kg (mouse)” value is “## (## is equal to or greater than 25% but less than 75%)”. Besides, on FAAH [5], the “FAAH % Inh 5 mg/kg (mouse)” value is listed as “# (# is <25%)”. For the same compound, the “ABHD6 % Inh 5 mg/kg (mouse)” value on ABHD6 [6] is recorded as “# (# is <25%)”.

On to `O=C(OC(C(F)(F)F)C(F)(F)F)N1CCC2(CCCN2Cc2ccc(C(F)(F)F)cc2N2CCOCC2)CC1` [Example 67, 1,1,1,3,3,3-Hexafluoropropan-2-yl 1-(2-morpholino-4-(trifluoromethyl)benzyl)-1,8-diazaspiro[4.5]decane-8-carboxylate], for which the inhibition at 1 µM at MAGL [1] was above 75%; on ABHD6 [2], below 25%; on FAAH [3], below 25%. Besides, the IC50 on MAGL [1] was below 0.1 µM; on ABHD6 [2] it was above 1 µM; at FAAH [3], above 1 µM. Moreover, the “MAGL % Inh 5 mg/kg (mouse)” value on MAGL [4] was “### (### is ≥75%)”. In addition, at FAAH [5], the “FAAH % Inh 5 mg/kg (mouse)” value is on record as “# (# is <25%)”. Moreover, on ABHD6 [6], the “ABHD6 % Inh 5 mg/kg (mouse)” value is on record as “# (# is <25%)”.

Regarding `CCN1CCCc2cccc(CN3CCC4(CCN(C(=O)OC(C(F)(F)F)C(F)(F)F)CC4)C3)c21` [Example 71, 1,1,1,3,3,3-Hexafluoropropan-2-yl 2-((1-ethyl-1,2,3,4-tetrahydroquinolin-8-yl)methyl)-2,8-diazaspiro[4.5]decane-8-carboxylate], the results for the inhibition at 1 µM on MAGL [1], on ABHD6 [2] and at FAAH [3] were above 75%, 25 to 75% and below 25%, respectively. The IC50 is below 0.1 µM at MAGL [1], above 1 µM at ABHD6 [2] and above 1 µM on FAAH [3]. The “MAGL % Inh 5 mg/kg (mouse)” value at MAGL [4] is recorded as “### (### is ≥75%)”. Further, the “FAAH % Inh 5 mg/kg (mouse)” value at FAAH [5] is reported as “# (# is <25%)”. Moreover, the “ABHD6 % Inh 5 mg/kg (mouse)” value on ABHD6 [6] is reported as “## (## is equal to or greater than 25% but less than 75%)”.

With `O=C(OC(C(F)(F)F)C(F)(F)F)N1CCC2(CCN(Cc3ccc(C(F)(F)F)cc3N3CCCC3)C2)CC1` [Example 72, 1,1,1,3,3,3-Hexafluoropropan-2-yl 2-(2-(pyrrolidin-1-yl)-4-(trifluoromethyl)benzyl)-2,8-diazaspiro[4.5]decane-8-carboxylate], the inhibition at 1 µM is above 75% at MAGL [1], below 25% on ABHD6 [2] and below 25% on FAAH [3]. The IC50 on MAGL [1] is below 0.1 µM; on ABHD6 [2], above 1 µM; on FAAH [3] it was above 1 µM. For the same compound, the “MAGL % Inh 5 mg/kg (mouse)” value on MAGL [4] is on record as “## (## is equal to or greater than 25% but less than 75%)”. For the same compound, the “FAAH % Inh 5 mg/kg (mouse)” value at FAAH [5] is recorded as “# (# is <25%)”. Besides, the “ABHD6 % Inh 5 mg/kg (mouse)” value on ABHD6 [6] was “# (# is <25%)”.

Turning to `O=C(OC(C(F)(F)F)C(F)(F)F)N1CCC2(CCCN2Cc2ccc(C(F)(F)F)cc2N2CC3CCC(C2)O3)CC1` [Example 73, 1,1,1,3,3,3-Hexafluoropropan-2-yl 1-(2-(8-oxa-3-azabicyclo[3.2.1]octan-3-yl)-4-(trifluoromethyl)benzyl)-1,8-diazaspiro[4.5]decane-8-carboxylate], the inhibition at 1 µM on MAGL [1] was above 75%; at ABHD6 [2], below 25%; at FAAH [3], below 25%. The IC50 was below 0.1 µM on MAGL [1], above 1 µM at ABHD6 [2] and above 1 µM at FAAH [3]. In addition, the “MAGL % Inh 5 mg/kg (mouse)” value at MAGL [4] was “## (## is equal to or greater than 25% but less than 75%)”. The “FAAH % Inh 5 mg/kg (mouse)” value at FAAH [5] is reported as “# (# is <25%)”. The “ABHD6 % Inh 5 mg/kg (mouse)” value on ABHD6 [6] was “# (# is <25%)”.

For the compound `O=C(OC(C(F)(F)F)C(F)(F)F)N1CCC2(CCCN2Cc2ccc(Cl)cc2N2CCCCC2)CC1` [Example 74, 1,1,1,3,3,3-Hexafluoropropan-2-yl 1-(4-chloro-2-(piperidin-1-yl)benzyl)-1,8-diazaspiro[4.5]decane-8-carboxylate], the results for the inhibition at 1 µM on MAGL [1], at ABHD6 [2] and on FAAH [3] were above 75%, 25 to 75% and below 25%, respectively. Besides, the IC50 was below 0.1 µM at MAGL [1], above 1 µM at ABHD6 [2] and above 1 µM on FAAH [3]. The “MAGL % Inh 5 mg/kg (mouse)” value at MAGL [4] was “## (## is equal to or greater than 25% but less than 75%)”. For the same compound, the “FAAH % Inh 5 mg/kg (mouse)” value at FAAH [5] is “# (# is <25%)”. Besides, the “ABHD6 % Inh 5 mg/kg (mouse)” value at ABHD6 [6] is “# (# is <25%)”.

`O=C(OC(C(F)(F)F)C(F)(F)F)N1CCC2(CCCN2Cc2ccc(Cl)cc2N2CC3CCC(C2)O3)CC1` [Example 75, 1,1,1,3,3,3-Hexafluoropropan-2-yl 1-(2-(8-oxa-3-azabicyclo[3.2.1]octan-3-yl)-4-chlorobenzyl)-1,8-diazaspiro[4.5]decane-8-carboxylate]: the inhibition at 1 µM on MAGL [1] is above 75%; at ABHD6 [2], below 25%; at FAAH [3], below 25%. Besides, the IC50 at MAGL [1] was below 0.1 µM; at ABHD6 [2] it was above 1 µM; at FAAH [3] it was above 1 µM. For the same compound, the “MAGL % Inh 5 mg/kg (mouse)” value on MAGL [4] is “### (### is ≥75%)”. Further, the “FAAH % Inh 5 mg/kg (mouse)” value at FAAH [5] is listed as “# (# is <25%)”. Further, the “ABHD6 % Inh 5 mg/kg (mouse)” value at ABHD6 [6] is “# (# is <25%)”.

In the case of `O=C(OC(C(F)(F)F)C(F)(F)F)N1CCC2(CCCN2Cc2ccc(Cl)cc2N2CCCC2)CC1` [Example 76, 1,1,1,3,3,3-Hexafluoropropan-2-yl 1-(4-chloro-2-(pyrrolidin-1-yl)benzyl)-1,8-diazaspiro[4.5]decane-8-carboxylate], the inhibition at 1 µM was above 75% at MAGL [1], below 25% on ABHD6 [2] and below 25% at FAAH [3]. The figures for the IC50 at MAGL [1], at ABHD6 [2] and at FAAH [3] were below 0.1 µM, above 1 µM and above 1 µM, respectively. Also, the “MAGL % Inh 5 mg/kg (mouse)” value on MAGL [4] is listed as “### (### is ≥75%)”. Further, the “FAAH % Inh 5 mg/kg (mouse)” value at FAAH [5] was “# (# is <25%)”. For the same compound, the “ABHD6 % Inh 5 mg/kg (mouse)” value at ABHD6 [6] is reported as “# (# is <25%)”.
